{
  "source": "paper PMC10331488",
  "about": "“Targeting apolipoprotein E and N-terminal amyloid β-protein precursor interaction improves cognition and reduces amyloid pathology in Alzheimer’s mice” (The Journal of Biological Chemistry, 2023)",
  "settings": "mouse, in vivo, ip",
  "note": "Peptide text beside a SMILES is read from it.",
  "experimental": "Finally, to examine whether 6KApoEp did enter the brain to interact with APP, we aimed to identify 6KApoEp in vehicle- and 6KApoEp-treated APP/PS1/E2/E3/E4 mouse brains by Western blotting with antibody against LDLR binding domain (residues 133–152) of human apoE that is the analogous epitope as 6KApoEp except for 6K. […] Moreover, we examined the stability of 6KApoEp in the mouse plasma at different incubation times (i.e., 0, 3, 6, 12, and 24 h) at 37 °C by Western blotting using the same antibody.\nThe right five lanes denote a series of 6KApoEp calibration peptides (i.e., 20, 40, 80, 160, and 320 ng). Brain homogenates were obtained from APP/PS1/E2 mice that received vehicle (APP/PS1/E2-V) or 6KApoEp (APP/PS1/E2-6KApoEp), APP/PS1/E3 mice that received vehicle (APP/PS1/E3-V) or 6KApoEp (APP/PS1/E3-6KApoEp), and APP/PS1/E4 mice that received vehicle (APP/PS1/E4-V) or 6KApoEp (APP/PS1/E4-6KApoEp) for 3 months starting at 12 months of age. B, Western blotting data for the calibration graph were obtained from a series of 6KApoEp calibration peptides (i.e., 20, 40, 80, 160, and 320 ng). […] Western blotting data for (B) included each mouse (n = 4 per group with two of each sex), and quantitative data were averaged. […] D, the experiment was performed four times, and quantitative data were averaged (Table S23). […]",
  "data": [
    {"molecule": "CC(C)C[C@H](NC(=O)[C@H](CCCNC(=N)N)NC(=O)[C@@H](NC(=O)[C@H](CCCNC(=N)N)NC(=O)[C@H](CC(C)C)NC(=O)[C@H](CCCCN)NC(=O)[C@H](CCCCN)NC(=O)[C@H](CCCCN)NC(=O)[C@H](CCCCN)NC(=O)[C@H](CCCCN)NC(=O)[C@@H](N)CCCCN)C(C)C)C(=O)N[C@@H](C)C(=O)N[C@@H](CO)C(=O)N[C@@H](Cc1c[nH]cn1)C(=O)N[C@@H](CC(C)C)C(=O)N[C@@H](CCCNC(=N)N)C(=O)N[C@@H](CCCCN)C(=O)N[C@@H](CC(C)C)C(=O)N[C@@H](CCCNC(=N)N)C(=O)N[C@@H](CCCCN)C(=O)N[C@@H](CCCNC(=N)N)C(=O)N[C@@H](CC(C)C)C(=O)N[C@@H](CC(C)C)C(=O)N[C@@H](CCCNC(=N)N)C(=O)N[C@@H](CC(=O)O)C(=O)N[C@@H](C)C(=O)O", "note": "[6KApoEp] (H-KKKKKKLRVRLASHLRKLRKRLLRDA-OH)", "values": [
      {"measurement": "Whole-brain 6KApoEp level relative to the daily dose (7.5 μg)", "result": "3.4-6.7 times the daily dose"}
    ]}
  ]
}
